target: T1, P2X7 receptor (Homo sapiens, UniProt Q99572); test: High throughput P2X7 calcium mobilization assay (Example 4A); assay type: cell-based; details: SH-SY5Y cells; 50% decrease in fluorescence response of cells exposed to 80 μM BzATP; Table I
T1 construct: host or cells: SH-SY5Y
T1 sequence (Q99572 1-595): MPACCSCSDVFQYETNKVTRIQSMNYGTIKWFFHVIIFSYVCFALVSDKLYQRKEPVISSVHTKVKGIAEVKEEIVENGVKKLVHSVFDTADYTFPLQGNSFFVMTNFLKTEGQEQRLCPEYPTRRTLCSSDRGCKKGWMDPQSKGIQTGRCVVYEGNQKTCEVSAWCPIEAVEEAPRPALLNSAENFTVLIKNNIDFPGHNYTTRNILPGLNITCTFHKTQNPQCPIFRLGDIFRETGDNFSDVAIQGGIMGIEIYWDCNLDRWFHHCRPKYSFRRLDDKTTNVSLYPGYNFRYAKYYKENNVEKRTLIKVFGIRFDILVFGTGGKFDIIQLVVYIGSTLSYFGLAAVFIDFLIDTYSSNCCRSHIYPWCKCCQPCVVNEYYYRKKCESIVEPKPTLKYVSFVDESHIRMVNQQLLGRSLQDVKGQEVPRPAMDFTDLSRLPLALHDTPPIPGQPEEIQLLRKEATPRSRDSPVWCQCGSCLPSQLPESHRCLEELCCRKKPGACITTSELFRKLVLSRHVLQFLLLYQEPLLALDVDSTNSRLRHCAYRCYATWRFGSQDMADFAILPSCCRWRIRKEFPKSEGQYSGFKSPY
Procedure, shortened: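 Calcium mobilization read by FLIPR as peak fluorescence over 2 min after adding BzATP to a final 80 μM (about EC50). Beforehand, Fluo-4 AM-loaded SH-SY5Y cells sat 1 h at room temperature with compound at 1–2500 nM in pH 7.4 sucrose/HEPES buffer; signal minus no-agonist wells.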

| SMILES | IC50 [nM] |
| --- | --- |
| O=C(NCC(O)C12CC3CC(CC(C3)C1)C2)c1cn(-c2ncccn2)nc1C(F)(F)F (stereo not shown) [Compound 205, N-(2-adamantan-1-yl-2-hydroxyethyl)-1-pyrimidin-2-yl-3-(trifluoromethyl)-1H-pyrazole-4-carboxamide] | ≤ 2000 |
| CC1CC(NC(=O)c2cn(-c3ncccn3)nc2C(F)(F)F)CC(C)(C)C1 (stereo not shown) [Compound 216, 1-pyrimidin-2-yl-3-(trifluoromethyl)-N-(3,3,5-trimethylcyclohexyl)-1H-pyrazole-4-carboxamide] | ≤ 2000 |
| O=C(NC1C2CC3CC(C2)CC1C3)c1cn(-c2ncccn2)nc1C(F)(F)F (stereo not shown) [Compound 217, N-adamantan-2-yl-1-pyrimidin-2-yl-3-(trifluoromethyl)-1H-pyrazole-4-carboxamide] | ≤ 2000 |
| CCc1nc(-c2ncccn2)sc1C(=O)NCC1(c2cccnc2)CCCCC1 [Compound 219, 4-ethyl-N-[(1-pyridin-3-ylcyclohexyl)methyl]-2-pyrimidin-2-yl-1,3-thiazole-5-carboxamide] | ≤ 2000 |
| CCc1nc(-c2ncccn2)sc1C(=O)NCC(CC(C)C)c1ccc(C(F)(F)F)cc1 (stereo not shown) [Compound 220, 4-ethyl-N-{4-methyl-2-[4-(trifluoromethyl)phenyl]pentyl}-2-pyrimidin-2-yl-1,3-thiazole-5-carboxamide] | ≤ 2000 |
| CCc1nc(-c2ncccn2)sc1C(=O)NCc1ccc(F)cc1Cl [Compound 231, N-(2-chloro-4-fluorobenzyl)-4-ethyl-2-pyrimidin-2-yl-1,3-thiazole-5-carboxamide] | ≤ 2000 |
| CCc1nc(-c2ncccn2)sc1C(=O)NC1CC(C)CC(C)(C)C1 (stereo not shown) [Compound 236, 4-ethyl-2-pyrimidin-2-yl-N-(3,3,5-trimethylcyclohexyl)-1,3-thiazole-5-carboxamide] | ≤ 2000 |
| CCc1nc(-c2ncccn2)sc1C(=O)NCC12CC3CC(CC(C3)C1)C2 [Compound 247, N-(adamantan-1-ylmethyl)-4-ethyl-2-pyrimidin-2-yl-1,3-thiazole-5-carboxamide] | ≤ 2000 |
| CCc1nc(-c2ncccn2)sc1C(=O)NC[C@@H]1CCC2CC1C2(C)C (stereo partly drawn) [Compound 248, N-{[(2R)-6,6-dimethylbicyclo[3.1.1]hept-2-yl]methyl}-4-ethyl-2-pyrimidin-2-yl-1,3-thiazole-5-carboxamide] | ≤ 2000 |
| CCc1nc(-c2ncccn2)sc1C(=O)NCC(CC(C)C)c1ccc(Cl)cc1 (stereo not shown) [Compound 249, N-[2-(4-chlorophenyl)-4-methylpentyl]-4-ethyl-2-pyrimidin-2-yl-1,3-thiazole-5-carboxamide] | ≤ 2000 |
| CCc1nc(-c2ncccn2)sc1C(=O)NCC1(c2ccc(OC)cc2)CCCCC1 [Compound 250, 4-ethyl-N-{[1-(4-methoxyphenyl)cyclohexyl]methyl)-2-pyrimidin-2-yl-1,3-thiazole-5-carboxamide] | ≤ 2000 |
| CCc1nc(-c2ncccn2)sc1C(=O)NCC(CC(C)C)c1ccccc1 (stereo not shown) [Compound 258, 4-ethyl-N-(4-methyl-2-phenylpentyl)-2-pyrimidin-2-yl-1,3-thiazole-5-carboxamide] | ≤ 2000 |
| CCc1nc(-c2ncccn2)sc1C(=O)NCC1(c2ccc(OC)cc2)CCCC1 [Compound 269, 4-ethyl-N-{[1-(4-methoxyphenyl)cyclopentyl]methyl}-2-pyrimidin-2-yl-1,3-thiazole-5-carboxamide] | ≤ 2000 |
| CCc1nc(-c2ncccn2)sc1C(=O)NCC(CC(C)C)c1ccc(C)cc1 (stereo not shown) [Compound 275, 4-ethyl-N-[4-methyl-2-(4-methylphenyl)pentyl]-2-pyrimidin-2-yl-1,3-thiazole-5-carboxamide] | ≤ 2000 |
| CCc1nc(-c2ncccn2)sc1C(=O)NCC1(c2ccc(Cl)cc2)CCCCC1 [Compound 276, N-{[1-(4-chlorophenyl)cyclohexyl]methyl}-4-ethyl-2-pyrimidin-2-yl-1,3-thiazole-5-carboxamide] | ≤ 2000 |
| CCCC(CNC(=O)c1sc(-c2ncccn2)nc1CC)c1ccc(Cl)cc1 (stereo not shown) [Compound 277, N-[2-(4-chlorophenyl)pentyl]-4-ethyl-2-pyrimidin-2-yl-1,3-thiazole-5-carboxamide] | ≤ 2000 |
| COc1ccc(C2(CNC(=O)c3sc(-c4ncccn4)nc3C(F)(F)F)CCCC2)cc1 [Compound 285, N-{[1-(4-methoxyphenyl)cyclopentyl]methyl}-2-pyrimidin-2-yl-4-(trifluoromethyl)-1,3-thiazole-5-carboxamide] | ≤ 2000 |
| O=C(NCC(c1ccc(Cl)cc1)N1CCCC1)c1sc(-c2ncccn2)nc1C(F)(F)F (stereo not shown) [Compound 286, N-[2-(4-chlorophenyl)-2-pyrrolidin-1-ylethyl]-2-pyrimidin-2-yl-4-(trifluoromethyl)-1,3-thiazole-5-carboxamide] | ≤ 2000 |
| O=C(NCC1(c2ccc(Cl)nc2)CCCC1)c1sc(-c2ncccn2)nc1C(F)(F)F [Compound 287, N-{[1-(6-chloropyridin-3-yl)cyclopentyl]methyl}-2-pyrimidin-2-yl-4-(trifluoromethyl)-1,3-thiazole-5-carboxamide] | ≤ 2000 |
| CCc1nc(-c2ncccn2)sc1C(=O)NCC1(c2ccc(Cl)nc2)CCCC1 [Compound 288, N-{[1-(6-chloropyridin-3-yl)cyclopentyl]methyl}-4-ethyl-2-pyrimidin-2-yl-1,3-thiazole-5-carboxamide] | ≤ 2000 |
| Cc1nc(-c2ncccn2)sc1C(=O)NCC1(c2cccnc2)CCCCC1 [Compound 289, 4-methyl-N-[(1-pyridin-3-ylcyclohexyl)methyl]-2-pyrimidin-2-yl-1,3-thiazole-5-carboxamide] | ≤ 2000 |

More lines, now with the values ahead:

| IC50 [nM] | SMILES |
| --- | --- |
| ≤ 2000 | CC(C)CC(CNC(=O)c1cn(-c2ncccn2)nc1C(F)(F)F)c1cccnc1 (stereo not shown) [Compound 203, N-(4-methyl-2-pyridin-3-ylpentyl)-1-pyrimidin-2-yl-3-(trifluoromethyl)-1H-pyrazole-4-carboxamide] |
| ≤ 2000 | O=C(NCC1(c2ccc(Cl)cc2)CCC1)c1cn(-c2ncccn2)nc1C(F)(F)F [Compound 204, N-{[1-(4-chlorophenyl)cyclobutyl]methyl}-1-pyrimidin-2-yl-3-(trifluoromethyl)-1H-pyrazole-4-carboxamide] |
| ≤ 2000 | CC(C)CCNC(=O)c1cn(-c2ncccn2)nc1C(F)(F)F [Compound 206, N-(3-methylbutyl)-1-pyrimidin-2-yl-3-(trifluoromethyl)-1H-pyrazole-4-carboxamide] |
| ≤ 2000 | CCC(CNC(=O)c1cn(-c2ncccn2)nc1C(F)(F)F)c1ccccc1 (stereo not shown) [Compound 207, N-(2-phenylbutyl)-1-pyrimidin-2-yl-3-(trifluoromethyl)-1H-pyrazole-4-carboxamide] |
| ≤ 2000 | CCCCCCCC(CNC(=O)c1cn(-c2ncccn2)nc1C(F)(F)F)c1ccccc1 (stereo not shown) [Compound 208, N-(2-phenylnonyl)-1-pyrimidin-2-yl-3-(trifluoromethyl)-1H-pyrazole-4-carboxamide] |
| ≤ 2000 | CC(C)CC(CNC(=O)c1cn(-c2ncccn2)nc1C(F)(F)F)c1ccccc1 (stereo not shown) [Compound 209, N-(4-methyl-2-phenylpentyl)-1-pyrimidin-2-yl-3-(trifluoromethyl)-1H-pyrazole-4-carboxamide] |
| ≤ 2000 | O=C(NCC(CC1CCCC1)c1ccccc1)c1cn(-c2ncccn2)nc1C(F)(F)F (stereo not shown) [Compound 210, N-(3-cyclopentyl-2-phenylpropyl)-1-pyrimidin-2-yl-3-(trifluoromethyl)-1H-pyrazole-4-carboxamide] |
| ≤ 2000 | O=C(NCC(c1ccccc1)C1CCCCC1)c1cn(-c2ncccn2)nc1C(F)(F)F (stereo not shown) [Compound 211, N-(2-cyclohexyl-2-phenylethyl)-1-pyrimidin-2-yl-3-(trifluoromethyl)-1H-pyrazole-4-carboxamide] |
| ≤ 2000 | CCCCCCC(CNC(=O)c1cn(-c2ncccn2)nc1C(F)(F)F)c1ccccc1 (stereo not shown) [Compound 212, N-(2-phenyloctyl)-1-pyrimidin-2-yl-3-(trifluoromethyl)-1H-pyrazole-4-carboxamide] |
| ≤ 2000 | O=C(NCC(CC1CCCCC1)c1ccccc1)c1cn(-c2ncccn2)nc1C(F)(F)F (stereo not shown) [Compound 213, N-(3-cyclohexyl-2-phenypropyl)-1-pyrimidin-2-yl-3-(trifluoromethyl)-1H-pyrazole-4-carboxamide] |
| ≤ 2000 | O=C(NCC(CCC1CCCCC1)c1ccccc1)c1cn(-c2ncccn2)nc1C(F)(F)F (stereo not shown) [Compound 214, N-(4-cyclohexyl-2-phenylbutyl)-1-pyrimidin-2-yl-3-(trifluoromethyl)-1H-pyrazole-4-carboxamide] |
| ≤ 2000 | CC(CCNC(=O)c1cn(-c2ncccn2)nc1C(F)(F)F)c1ccccc1 (stereo not shown) [Compound 215, N-(3-phenylbutyl)-1-pyrimidin-2-yl-3-(trifluoromethyl)-1H-pyrazole-4-carboxamide] |
| ≤ 2000 | O=C(NCCc1ccccc1Br)c1cn(-c2ncccn2)nc1C(F)(F)F [Compound 218, N-[2-(2-bromophenyl)ethyl]-1-pyrimidin-2-yl-3-(trifluoromethyl)-1H-pyrazole-4-carboxamide] |

— patent US9133204B2, “5-membered heterocyclic amides and related compounds” (H. Lundbeck A/S, priority 2007, dated 2015)
